Laboratory results taken from patent publication US8173157B2, “Pharmaceutical composition comprising phenylamidine derivative and method of using the pharmaceutical composition in combination with antifungal agent” (Toyama Chemical Co., Ltd., priority 2006, dated 2012).
Numbered stars: 1 amine (or outer) side, 2 acyl side, 3 side chain; on linkers, the order of the positions; unused ones are H or OH. Bridge positions count the residues as written; N and C are the ends. Square brackets hold non-standard residues; d marks the D form. Peptide text beside a SMILES is read from it. * marks the point of attachment. hTyr(3S-OH,4S-OH,3'-OSO3H) = N[C@H](C(=O)O)[C@H](O)[C@@H](O)c1ccc(O)c(OS(=O)(=O)O)c1; Orn(4R-OH,5R-OH) = O=C([C@H](C[C@@H](O)[C@@H](O)N[*:3])N[*:1])[*:2]; Pro(3S-OH,4S-Me) = C[C@H]1CN[C@H](C(=O)O)[C@H]1O; X1 = CCCCCOc1ccc(-c2cc(-c3ccc(C(=O)*)cc3)no2)cc1; Gln(3R-OH) = NC(=O)C[C@@H](O)[C@H](N)C(=O)O; Hyp = O=C(O)[C@@H]1C[C@@H](O)CN1

What was measured:
[1] = system: Aspergillus fumigatus IFM46895; experiment: In vivo test: murine systemic infection caused by Aspergillus fumigatus; conditions: for Survival rate: ICR mice, day 21 after infection, once daily, 7 times
Procedure: In vivo activity was evaluated in murine systemic infection caused by Aspergillus fumigatus.
Mice (4-week old (at infection) male ICR mice, 5 mice per group) were intraperitoneally administered 200 mg/kg of cyclophosphamide 4 days before infection and 100 mg/kg on the following day after infection. Conidia suspension of Aspergillus fumigatus IFM46895 was diluted with sterile physiological saline solution containing 0.05% Tween 80 (manufactured by Difco Laboratories) in sterile physiological saline solution to give the inoculum solution. Systemic infection was induced in mice by intravenous inoculation of 0.2 mL of the inoculum solution into the tail vein (1.6×10^5 CFU/mouse).
(§1) The test compound was dissolved in a small amount of 0.1 mol/L hydrochloric acid, and the solution was diluted with sterilized water to prepare predetermined concentrations.
Flucytosine (made by Sigma Company) was suspended in 0.5% methyl cellulose liquid to prepare predetermined concentrations for administration.
Voriconazole (a commercial name: Vfend 200 mg for intravenous use, made by Pfizer Inc.) was diluted with sterilized water to prepare voriconazole solutions of predetermined concentrations for administration.
The test compound (1 and 3 mg/kg), flucytosine (50 and 250 mg/kg) and voriconazole (5 and 10 mg/kg) were orally administered. The administrations were conducted once 2 hours after the infection and then once daily for the following 6 days, totaling 7 times.
(§2) On one hand each of the agents was administered singly, on the other hand each of the agents was administered immediately after the test compound was administered. The efficacy was evaluated on the basis of the survival rate on day 21 after infection.

[2] = system: Candida albicans TIMM1623; experiment: In vivo test: murine systemic infection caused by Candida albicans; conditions: ICR mice, day 21 after infection, once daily, 7 times
Procedure: In vivo activity was evaluated in murine systemic infection caused by Candida albicans.
(§3) Mice (4-week old (at infection) male ICR mice, 5 mice per group) were intraperitoneally administered 200 mg/kg of cyclophosphamide 4 days before infection and 100 mg/kg on the following day after infection. Candida albicans TIMM1623, which were prepared from overnight culture on a Sabouraud Dextrose Agar plate at 35° C., were suspended in sterile physiological saline solution. After counting cell number of the suspension with a biological microscope, the suspension was diluted with sterile physiological saline solution to give the inoculum solution. Systemic infection was induced in mice by intravenous inoculation of 0.2 mL of the inoculum solution into the tail vein (2.6×10^4 CFU/mouse).
as §1
Fluconazole (a commercial name: FLANOS intravenous drip solution 100 mg, made by Toyama Chemical Co., Ltd.) was diluted with sterilized water to prepare fluconazole solutions of predetermined concentrations.
Micafungin sodium (a commercial name: Funguard 50 mg for infusion, made by Astellas Pharma Inc.) was dissolved in sterile physiological saline solution to prepare micafungin solutions of predetermined concentrations.
Amphotericin B for injection (a commercial name: FUNGIZONE, made by Bristol pharmaceutical Ltd.) was dissolved in 5% glucose to prepare an amphotericin B solution of a predetermined concentration.
The test compound (0.25 and 0.5 mg/kg) and fluconazole (0.25 and 0.5 mg/kg) were orally administered. Micafungin (0.125 and 0.25 mg/kg) and amphotericin B (0.1 mg/kg) were subcutaneously administered. These administrations were conducted once 2 hours after the infection and then once daily for the following 6 days, totaling 7 times.
On one hand each of the agents was administered singly, on the other hand each of the agents was administered immediately after the test compound was administered.
The efficacy was evaluated on the basis of the survival rate on day 21 after infection.

[3] = Toxicity on consecutive oral administration to mice; format: in vivo; conditions: orally administered consecutively at 25 mg/kg for 2 weeks
[4] = system: Cryptococcus neoformans ATCC90112; experiment: In vivo test: murine systematic infection caused by Cryptococcus neoformans; conditions: ICR mice, day 21 after infection, once daily, 7 times
Procedure: In vivo activity was evaluated in murine systematic infection caused by Cryptococcus neoformans.
as §3, with “Cryptococcus neoformans ATCC90112 cells,” for “Candida albicans TIMM1623,”, “Systematic” for “Systemic”, “injection” for “inoculation”, “(8.5×10^4” for “(2.6×10^4”
The test compound was dissolved in a small amount of 0.1 mol/L hydrochloric acid, and the solution was diluted with sterilized water to prepare predetermined concentrations. […]
as §2

[5] = system: Aspergillus fumigatus IFM46895; conditions: general statement ("as usual"); cited from earlier work

**Q.** With `C[C@@H](c1ncncc1F)[C@](O)(Cn1cncn1)c1ccc(F)cc1F` [VCZ, voriconazole] as the molecule, how does the Survival rate ([1]; VCZ 10 mg/kg orally) read?
**A.** 0

**Q.** Which Survival rate ([1]; test compound 1 mg/kg orally) does the source give for `CCCCOC(=O)N=C(N)c1ccc(OCCCC2CCN(CCCOc3ccc(C(N)=NC(=O)OCCCC)cc3)CC2)cc1` [Test compound, 4-{3-[4-(3-{4-[amino(butoxycarbonylimino)methyl]phenoxy}propyl)-1-piperidinyl]propoxy}-N′-(butoxycarbonyl)benzamidine] here?
**A.** 0

**Q.** And the Survival rate ([1]; test compound 3 mg/kg orally)?
**A.** 20

**Q.** And the Survival rate ([2]; test compound 0.5 mg/kg orally)?
**A.** 0

**Q.** What about the Toxicity [3] of the same molecule?
**A.** did not show toxicity at all

**Q.** And the Survival rate ([4]; test compound 1 mg/kg orally)?
**A.** 0

**Q.** With `C[C@@H]1[C@H](O)[C@@H](C)/C=C/C=C/C=C/C=C/C=C/C=C/C=C/[C@H](O[C@@H]2O[C@H](C)[C@@H](O)[C@H](N)[C@@H]2O)C[C@@H]2O[C@](O)(C[C@@H](O)C[C@@H](O)[C@H](O)CC[C@@H](O)C[C@@H](O)CC(=O)O[C@H]1C)C[C@H](O)[C@H]2C(=O)O` [AMPH-B, amphotericin B] as the molecule, how does the Survival rate ([2]; AMPH-B 0.1 mg/kg subcutaneously) read?
**A.** 20

**Q.** Which Survival rate ([2]; MCFG 0.125 mg/kg subcutaneously) does the source give for `CCCCCOc1ccc(-c2cc(-c3ccc(C(=O)N[C@H]4C[C@@H](O)[C@@H](O)NC(=O)[C@@H]5[C@@H](O)[C@@H](C)CN5C(=O)[C@H]([C@H](O)CC(N)=O)NC(=O)[C@H]([C@H](O)[C@@H](O)c5ccc(O)c(OS(=O)(=O)O)c5)NC(=O)[C@@H]5C[C@@H](O)CN5C(=O)[C@H]([C@@H](C)O)NC4=O)cc3)no2)cc1` [MCFG, micafungin] (X1-[Orn(4R-OH,5R-OH)]T[Hyp][hTyr(3S-OH,4S-OH,3'-OSO3H)][Gln(3R-OH)][Pro(3S-OH,4S-Me)]; lactam 1-C) here?
**A.** 0

**Q.** What about the Survival rate ([2]; MCFG 0.25 mg/kg subcutaneously) of the same molecule?
**A.** 40

**Q.** For `Nc1[nH]c(=O)ncc1F` [Example 5-FC, flucytosine], which Survival rate ([1]; 5-FC 250 mg/kg orally) is on record?
**A.** 0

**Q.** What about the Therapeutic effect ([1]; murine systemic infection, flucytosine 250 mg/kg administered singly) of the same molecule?
**A.** no therapeutic effect

**Q.** And the “Effect against Aspergillus fumigatus” value [5]?
**A.** almost no effect

**Q.** Which results are given for `OC(Cn1cncn1)(Cn1cncn1)c1ccc(F)cc1F` [FLCZ, fluconazole]?
**A.** Survival rate ([2]; FLCZ 0.25 mg/kg orally): 20; Survival rate ([2]; FLCZ 0.5 mg/kg orally): 40; Survival rate ([4]; FLCZ 20 mg/kg orally): 20
